# Patent publication US20070149483A1, “Methods and compounds for modulating triglyceride and vldl secretion” (priority 2003, published 2007)
# What was measured:
# [1] = tested on: McA-RH7777 cells expressing human apoB100; assay: Pulse-chase of [35S]apoB100 with rate flotation of conditioned medium and microsomal lumen; assay type: cell-based, rat; settings: 30 min pulse, end of 1-h chase
# Description: Cell Culture and Fatty Acid Treatments—Transfected McA-RH7777 cells stably expressing human apoB100 (McLeod et al., 1994, J. Biol. Chem. 269, 2852-2862) were cultured in Dulbecco's modified Eagle's medium (DMEM) containing 10% fetal bovine serum (FBS), 10% horse serum and 200 μg/ml G418. Routinely, the cells were incubated with 0.4 mM fatty acids for 16-18 h in the presence of 20% FBS prior to experiments.
# [2] = tested on: McA-RH7777 cells stably expressing human apoB100; assay: Transmission electron microscopy morphometry of lipid/lipoprotein particles in Golgi and GAV; assay type: cell-based, rat; settings: for relative occurrence of particle type in the GAV: n=221; for relative occurrence of particle type in trans-Golgi saccules 4-6+TGN/secretory vesicles: n=284
# Description: The samples were processed for transmission electron microscopy as previously described (Tran et al., 2002). Single and serial thin sections (silver-gold interference colors) were visualized in a Hitachi H-7000 transmission electron microscope, and captured at a range of negative magnifications (8,000-120,000 times). Panoramic tiling was used to capture large fields. The 3D model was prepared from Golgi fields from 7 consecutive serial images (positive magnification=70,000 times), by the method previously described (Thorne-Tjomsland et al., 1998, Anat. Rec. 250, 381-396), with the following modifications. The serial fields were scanned into Adobe Photoshop 5.5 of an Imac 700 MHz G4 computer. Alignment of consecutive sections by fiducial markers was carried out prior to object-contouring and -separation. Concatenation and volume rendering were done in Synu on an SGI-OS 2, and image capture was with Photoshop on a Macintosh platform. The diameter of electron-dense particles, which represent a combination of lipoprotein particles and lipid droplets, were measured in 40 randomly selected Golgi regions from EPA-treated cells. Negative magnification was 40,000 times and positives were further magnified three times. Measurements were from positives, using a digital caliper [technical specifications in required range (0-150 mm on positive): max resolution=0.01 mm; accuracy=0.02 mm; repeatability=0.01 mm]. The precision in our system was tested by measuring the diameters of each of two electron-dense particles (20 nm and 40 nm diameter) 40 times; SD for the average converted measurements was <1 nm. Criteria for selecting Golgi, establishing cis-trans polarity, and measuring lipid/lipoprotein particles were as described (Tran et al., 2002). Lipid/lipoprotein particles were classified as membrane-associated if directly apposed to the lumenal Golgi leaflet or with a membrane diverging from this, otherwise as lumenal.
# [3] = tested on: McA-RH7777 cells stably expressing human apoB100; assay: Pulse-chase with subcellular fractionation: membrane-associated apoB100 trafficking; assay type: cell-based, rat; settings: 20 min pulse
# Description: The cells were then incubated with chase medium for 15, 30 and 45 min. At the end of each chase time, the medium was collected and subjected to cumulative rate flotation centrifugation (Wang et al., 1999) to resolve apoB100-VLDL1 (Sf>100) and apoB100-VLDL2 (Sf 20-100) from other lipoproteins (i.e. IDL, LDL and HDL). The ^35S-apoB100 in each fraction was recovered by immunoprecipitation. Also, at the end of each chase time, the radiolabeled cells were harvested in 2 ml of ice-cold homogenization buffer (10 mM Tris-HCl, pH 7.4, 250 mM sucrose, 5 mM EDTA, and serine/cysteine protease inhibitor mixture), mixed with two 100-mm dishes of unlabeled cells, homogenized by passing ten times through a ball-bearing homogenizer, and subjected to subcellular fractionation and carbonate-treatment as described below. […]
# Analysis of ApoB100 Associated with Membranes and Lumenal Contents of Microsomes—Lumenal contents were separated from membranes by sodium carbonate treatment followed by centrifugation (Tran et al., 2002). The ^35S-labelled apoB100 proteins associated with the membrane and lumen were recovered by immunoprecipitation and analyzed by SDS-PAGE/fluorography as previously described (Tran et al., 2002). […]
# [4] = tested on: McA-RH7777 cells stably expressing human apoB100; assay: Immunofluorescent localization of apoB and Map1LC3; assay type: cell-based, rat; settings: 0.4 mM, 4 h, in comparison to controls
# Description: Cells were permeabilized with 1% Triton X-100 in blocking buffer (10% FBS in PBS) for 30 min and probed with primary antibodies, i.e., monoclonal antibody 1D1 (1:1000) for human apoB and polyclonal antibody against rat Map1LC3 (1:200) for 1 h. Cells were then incubated with a mixture of secondary antibodies (1:200), i.e., of goat anti-mouse IgG conjugated with Alexa Fluor™488 (green) and goat anti-rabbit IgG conjugated with Alexa Fluor™594 (red) for 1 h. The coverslips were mounted onto glass slides using SlowFade AntiFade kits (Molecular Probes) and the images were captured by an MRC-1024 laser scanning confocal imaging system. […] The secondary antibody for apoB was conjugated with Alexa Fluor™488 (green), and that for Map1LC3 was conjugated with Alexa Fluor™594 (red).
# [5] = tested on: McA-RH7777 cells stably expressing human apoB100; settings: Tran et al., 2002, cited from earlier work
# McA-RH777 cells = settings: oleate-treated cells; cited from earlier work
compound,measurement,setting,value
"CC/C=C\C/C=C\C/C=C\C/C=C\C/C=C\CCCC(=O)O [EPA, eicosapentaenoic acid]",increase of [^35S]-apoB100 in fractions of high density (IDL and LDL) in the microsomal lumen,[1]; vs oleate,six-fold
same,"decrease of [^35S]-apoB100 in VLDL (VLDL1 and VLDL2) in the media, as compared to oleate-treatment",[1]; 16 h pretreatment,50%
same,average size of Type I particles in the cis-most Golgi saccule,[2]; EPA-treated cells,100 nm
same,average size of Type V particles,[2]; EPA-treated cells,54.5 nm
same,sizes of Type V particles in the Golgi,[2]; EPA-treated cells,25-75 nm
same,Percent membrane association of particles,"[2]; Type I, GAV",33%
same,Percent membrane association of particles,"[2]; Type I, Golgi saccule 1",100%
same,Percent membrane association of particles,"[2]; Type I, Golgi saccule 2",84%
same,Percent membrane association of particles,"[2]; Type I, Golgi saccule 3",80%
same,Percent membrane association of particles,"[2]; Type I, Golgi saccules 4-6",73%
same,Percent membrane association of particles,"[2]; Type I, TGN and secretory",56%
same,relative occurrence of particle type in the GAV,[2]; Type I,12%
same,relative occurrence of particle type in trans-Golgi saccules 4-6+TGN/secretory vesicles,[2]; Type I,12%
same,Percent membrane association of particles,"[2]; Type II, GAV",25%
same,Percent membrane association of particles,"[2]; Type II, Golgi saccule 1",100%
same,Percent membrane association of particles,"[2]; Type II, Golgi saccule 2",83%
same,Percent membrane association of particles,"[2]; Type II, Golgi saccule 3",75%
same,relative occurrence of particle type in the GAV,[2]; Type II,2%
same,relative occurrence of particle type in trans-Golgi saccules 4-6+TGN/secretory vesicles,[2]; Type II,4%
same,Percent membrane association of particles,"[2]; Type III, GAV",46%
same,Percent membrane association of particles,"[2]; Type III, Golgi saccule 1",100%
same,Percent membrane association of particles,"[2]; Type III, Golgi saccule 2",83%
same,Percent membrane association of particles,"[2]; Type III, Golgi saccule 3",83%
same,Percent membrane association of particles,"[2]; Type III, Golgi saccules 4-6",82%
same,Percent membrane association of particles,"[2]; Type III, TGN and secretory",73%
same,relative occurrence of particle type in the GAV,[2]; Type III,11%
same,relative occurrence of particle type in trans-Golgi saccules 4-6+TGN/secretory vesicles,[2]; Type III,13%
same,Percent membrane association of particles,"[2]; Type IV, GAV",45%
same,Percent membrane association of particles,"[2]; Type IV, Golgi saccules 4-6",50%
same,Percent membrane association of particles,"[2]; Type IV, TGN and secretory",20%
same,Percent membrane association of particles,"[2]; Type IV, combined Golgi saccules 1-3",67%
same,relative occurrence of particle type in the GAV,[2]; Type IV,5%
same,relative occurrence of particle type in trans-Golgi saccules 4-6+TGN/secretory vesicles,[2]; Type IV,5%
same,Percent membrane association of particles,"[2]; Type V, GAV",42%
same,Percent membrane association of particles,"[2]; Type V, Golgi saccule 1",96%
same,Percent membrane association of particles,"[2]; Type V, Golgi saccule 2",83%
same,Percent membrane association of particles,"[2]; Type V, Golgi saccule 3",66%
same,Percent membrane association of particles,"[2]; Type V, Golgi saccules 4-6",64%
same,Percent membrane association of particles,"[2]; Type V, TGN and secretory",66%
same,relative occurrence of particle type in the GAV,[2]; Type V,70%
same,relative occurrence of particle type in trans-Golgi saccules 4-6+TGN/secretory vesicles,[2]; Type V,66%
"CCCCCCCC/C=C\CCCCCCCC(=O)O [Oleate, oleic acid]",rate at which the membrane-associated [^35S]-apoB100 exited the ER,"[3]; chase 0, 15, 30 and 45 min",−0.59±0.17 % of total/min
same,rate at which the membrane-associated [^35S]-apoB100 appeared in the distal Golgi,[3]; chase 0-45 min,0.39±0.11 % of total/min
same,"autophagy (penetration of Map1LC3 staining into the apoB100-rich perinuclear area, partial co-localization with apoB100)",[4],induced autophagy
same,size of lipoprotein particles detected in oleate-treated cells,[5],40 nm
same,average diameters of lipoproteins in Golgi saccules 1-6,[5]; oleate-treated McArdle cells,40±17 nm
same,share of total secreted TG carried by VLDL particles,McA-RH777 cells,> 80%
same,share of total secreted apoB100 carried by VLDL particles,McA-RH777 cells,< 10%
